Data on three compounds can be found in US20120225097A1, “PIPERAZINECARBOXAMIDE DERIVATIVE USEFUL AS A MODULATOR OF FATTY ACID AMIDE HYDROLASE (FAAH)” (priority 2009, published 2012).

In one data set the target is T1, rat FAAH (Rattus norvegicus, UniProt P97612).
T1 construct: expressed in transfected cells
T1 sequence (P97612 1-579): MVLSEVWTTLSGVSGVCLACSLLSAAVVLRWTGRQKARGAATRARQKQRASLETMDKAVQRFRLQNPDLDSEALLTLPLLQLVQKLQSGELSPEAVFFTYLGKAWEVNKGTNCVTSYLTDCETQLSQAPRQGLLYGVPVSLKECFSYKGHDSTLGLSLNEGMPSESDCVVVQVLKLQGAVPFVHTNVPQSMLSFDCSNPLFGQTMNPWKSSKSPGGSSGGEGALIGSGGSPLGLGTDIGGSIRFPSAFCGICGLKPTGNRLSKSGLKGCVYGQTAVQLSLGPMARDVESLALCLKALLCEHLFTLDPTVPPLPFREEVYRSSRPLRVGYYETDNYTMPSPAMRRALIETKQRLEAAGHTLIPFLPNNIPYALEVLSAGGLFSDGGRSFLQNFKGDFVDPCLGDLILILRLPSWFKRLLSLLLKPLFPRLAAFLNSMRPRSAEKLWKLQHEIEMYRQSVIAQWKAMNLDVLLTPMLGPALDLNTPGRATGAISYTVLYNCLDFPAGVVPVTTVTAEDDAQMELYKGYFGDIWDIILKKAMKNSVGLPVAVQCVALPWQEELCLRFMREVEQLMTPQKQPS
As to the kind of experiment: Assay Method 2: FAAH assay, anandamide hydrolysis in cell homogenate. The conditions noted are these: for IC50: average value (standard error of the mean in parenthesis), 3H-AEA 80 nM, 1 h rt. Type of data set: biochemical. How it is done: A. Transfection of Cells with Rat FAAH
A 10-cm tissue culture dish with a confluent monolayer of SK-N-MC cells was split 2 d prior to transfection. Using sterile technique, the media was removed and the cells were detached from the dish by the addition of trypsin. One fifth of the cells were then placed onto a new 10-cm dish. Cells were grown in a 37° C. incubator with 5% CO2 in Minimal Essential Media Eagle containing 10% Fetal Bovine Serum. After 2 d, cells were approximately 80% confluent. These cells were removed from the dish with trypsin and pelleted in a clinical centrifuge. The pellet was re-suspended in 400 μL complete media and transferred to an electroporation cuvette with a 0.4 cm gap between the electrodes. Supercoiled rat FAAH cDNA (1 μg), corresponding to NCBI accession NM_024132, was added to the cells and mixed. The voltage for the electroporation was set at 0.25 kV, and the capacitance was set at 960 μF. After electroporation, the cells were diluted into complete media (10 mL) and plated onto four 10-cm dishes. Because of the variability in the efficiency of electroporation, four different concentrations of cells were plated. The ratios used were 1:20, 1:10, and 1:5, with the remainder of the cells being added to the fourth dish. The cells were allowed to recover for 24 h before adding the selection media (complete media with 600 μg/mL G418). After 10 d, dishes were analyzed for surviving colonies of cells. Dishes with well-isolated colonies were used. Cells from individual colonies were isolated and tested.
T84 frozen cell pellets or transfected SK-N-MC cells (contents of 1×15 cm culture dishes) were homogenized in 50 mL of FAAH assay buffer (125 mM Tris, 1 mM EDTA, 0.2% Glycerol, 0.02% Triton X-100, 0.4 mM Hepes, pH 9). The assay mixture consisted of 50 μL of the cell homogenate, 10 μL of the test compound, and 40 μL of anandamide [1-^3H-ethanolamine] (^3H-AEA, Perkin-Elmer, 10.3 Ci/mmol), which was added last, for a final tracer concentration of 80 nM. The reaction mixture was incubated at rt for 1 h. During the incubation, 96-well Multiscreen filter plates (catalog #MAFCNOB50; Millipore, Bedford, Mass., USA) were loaded with 25 μL of activated charcoal (Multiscreen column loader, catalog #MACL09625, Millipore) and washed once with 100 μL of MeOH. Also during the incubation, 96-well DYNEX MicroLite plates (catalog #NL510410) were loaded with 100 μL of MicroScint40 (catalog #6013641, Packard Bioscience, Meriden, Conn., USA). After the 1 h incubation, 60 μL of the reaction mixture were transferred to the charcoal plates, which were then assembled on top of the DYNEX plates using Centrifuge Alignment Frames (catalog #MACF09604, Millipore). […]

Data set [1] deals with Langendorff isolated heart. As to the kind of experiment: Assay Method 3: Langendorff isolated heart protocol. Further details: species or system Sprague-Dawley rats. The conditions noted are these: isolated rat heart; for effect on left ventricular developed pressure (LVDevP): 30 μM; for effect on left ventricular systolic pressure (LVSP): maximum concentration tested 30 μM; for hearts showing greater than 30% slowing of heart rate: perfused at 30 μM; for hearts showing greater than 30% heart rate slowing: bath concentration 26 μM. How it is done: Langendorff Isolated Heart Protocol
Male Sprague-Dawley rats (300-500 g) were anesthetized by an intraperitoneal injection of sodium pentobarbital (50 mg/kg), and then euthanized via cardiectomy. Hearts were rapidly removed, mounted on a
A ventricular drain and fluid-filled latex balloon was secured in the left ventricle with a purse string suture at the atrial appendage. Hearts were not paced. […] The hearts were maintained at approximately 37° C. while suspended in a glass chamber and bathed with Krebs-Henseleit buffer. The latex balloon in the left ventricle (LV) was expanded with water to achieve a LV end-diastolic pressure (LVEDP) of approximately 10-15 mmHg. The balloon was connected via tubing to a pressure transducer to measure LVEDP, LV […] pressure (LVDP) and LV systolic pressure (LVSP). Coronary perfusion pressure (CPP) was measured with a pressure transducer connected to a side-arm port of the aortic cannula.
Individual hearts were equilibrated for approximately 10-15 minutes. Following this equilibration period, baseline measurements were collected for approximately 15 minutes. After this period, a first heart was exposed to test compound for a total 75 min (comprising five increasing concentrations of test compound for approximately 15 minutes at each concentration) with measurements collected continuously. Test compound was dissolved in DMSO and then added directly to the experiment perfusion medium.
A one mL sample of perfusion medium was taken from the heart exudate at the end of each 15 minute monitoring period. The samples were frozen on dry ice, stored in a freezer set to maintain −80° C. until analysis. At the conclusion of the experiment, the hearts were frozen with liquid nitrogen and stored in a freezer set to maintain a temperature of −80° C. until analyzed.

As a reminder, the IC50 is the concentration that inhibits the measured activity by half.

“And” between values parts separate entries of the source, which are not always exact repeats. Equal values may be shown once. Where a name gives a salt, the structure may show the parent alone.

For `O=C(Nc1cccnc1)N1CCN(Cc2cccc(Oc3ccc(Cl)cc3)c2)CC1` [4-({3-[(4-Chlorophenyl)oxy]phenyl}methyl)-N-pyridin-3-ylpiperazine-1-carboxamide], on rat FAAH, the IC50 was 65 nM. In data set [1], the “effect on left ventricular developed pressure (LVDevP)” value is on record as “near-doubling”; the “effect on left ventricular systolic pressure (LVSP)” value is “marked increase”; the “hearts showing greater than 30% slowing of heart rate” value was “all hearts (n=4) and 4/4”.

For the compound `O=C(Nc1cccnc1)N1CCN(Cc2cccc(Oc3ccc(Br)cc3)c2)CC1` [4-[3-(4-Bromophenoxy)benzyl]-N-pyridin-3-ylpiperazine-1-carboxamide], the IC50 at rat FAAH was 22 nM. For the same compound, the “hearts showing greater than 30% heart rate slowing” value was 3/4 in data set [1] and “three of four” in data set [1] (listed as 4-[3-(4-bromophenoxy)benzyl]-N-pyridin-3-ylpiperazine-1-carboxamide bis-hydrochl).

With `O=C(Nc1cccnc1)N1CCN(Cc2cccc(Oc3ccc(C(F)(F)F)cc3)c2)CC1` [Example 1, N-Pyridin-3-yl-4-{3-[4-(trifluoromethyl)phenoxy]benzyl}piperazine-1-carboxamide, bis-hydrochloride dihydrate], the 50% inhibitory concentration (IC50) at rat FAAH is 18 nM. Further, the “times more potent in in vitro assays using rat FAAH enzyme (vs 4-chlorophenyl comparator)” value on rat FAAH (relative to 4-({3-[(4-chlorophenyl)oxy]phenyl}methyl)-N-pyridin-3-ylpiperazine-1-carboxamide) is given as “about 3.5 times”. The “effect on left ventricular developed pressure (LVDevP)” value in data set [1] is given as “decrease”. Further, the “effect on left ventricular systolic pressure (LVSP)” value in data set [1] (listed as N-pyridin-3-yl-4-{3-[4-(trifluoromethyl)phenoxy]benzyl}piperazine-1-carboxamide , bis-hydrochloride dihydrate) was “did not induce an abrupt increase”; in data set [1] (listed as N-pyridin-3-yl-4-{3-[4-(trifluoromethyl)phenoxy]benzyl}piperazine-1-carboxamide, bis-hydrochloride dihydrate), “did not”. Moreover, in data set [1], the “hearts showing greater than 30% slowing of heart rate” value was “two of five”.
